{"source": "patent US8222285B2", "about": "“1,3-dihydroxy substituted phenylamide glucokinase activators” (Bristol-Myers Squibb Company, priority 2007, dated 2012)", "data": [{"target": "T1, human glucokinase (GK) (Homo sapiens, UniProt P35557)", "T1 construct": "Full-length human hepatic GK (untagged) was expressed in BL21 STAR (DE3)pLysS cells; made in house; host or cells: E. coli BL21 STAR (DE3)pLysS", "T1 sequence (P35557 1-466 isoform P35557-2)": "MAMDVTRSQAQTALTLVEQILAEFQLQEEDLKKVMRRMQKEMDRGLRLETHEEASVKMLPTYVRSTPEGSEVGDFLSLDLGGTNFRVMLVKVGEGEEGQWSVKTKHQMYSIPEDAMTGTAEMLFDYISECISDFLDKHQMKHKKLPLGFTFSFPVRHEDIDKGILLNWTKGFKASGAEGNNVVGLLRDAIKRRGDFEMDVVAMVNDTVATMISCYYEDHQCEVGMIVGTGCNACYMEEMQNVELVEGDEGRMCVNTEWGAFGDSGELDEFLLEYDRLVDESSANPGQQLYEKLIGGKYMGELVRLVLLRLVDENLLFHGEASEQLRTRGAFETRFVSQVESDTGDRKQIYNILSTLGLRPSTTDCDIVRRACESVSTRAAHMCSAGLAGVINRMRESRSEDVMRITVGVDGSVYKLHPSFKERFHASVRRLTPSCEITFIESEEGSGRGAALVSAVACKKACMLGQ", "assay": "Glucokinase tandem enzymatic assay", "type": "biochemical", "settings": "12 mM glucose; expressed as % of basal activation; EC50 could not be calculated; read-out: Maximal activation (%) Human Glucokinase @ 12 mM Glucose", "procedure": "(§1) Glucokinase Tandem Enzymatic Assay\n(§2) Enzymatic activity of human glucokinase (GK) was measured by incubating GK, ATP, and glucose for discrete time periods followed by quenching with EDTA (ethylenediamine tetra-acetic acid). Relative amounts of product glucose-6-phosphate (G6P) were measured by then running a detection assay using G6P dehydrogenase and measuring the conversion of ThioNAD (thio-nicotinamide adenine dinucleotide) to ThioNADH (thio-dihydronicotinamide adenine dinucleotide) at a wavelength of 405 nm. This ‘uncoupled’ enzymatic reaction is denoted as the GK ‘tandem’ assay. Activation of GK by compounds can be assessed using this assay. The GK tandem assay protocol described below was followed using a range of activator compound concentrations from 0 to 100 μM at 5 and 12 mM of glucose. Human full-length glucokinase (GK, 15 nM) was incubated with 5 or 12 mM glucose in a 384 well black microtiter plate with a clear bottom. To initiate the GK reaction, magnesium-ATP (3 mM final concentration) was added to GK in buffer (final buffer conditions of 25 mM HEPES buffer, pH 7.1, containing 1 mM dithiothreitol and 5% DMSO). The total reaction volume was 20 μL. The reaction was allowed to proceed for ten minutes and was then quenched with 5 μL EDTA; 45 mM final). The components of the detection reaction, ThioNAD and G6PDH (glucose-6-phosphate dehydrogenase) (final concentrations of 650 μM and 3.33 Units, respectively), were then added together in a volume of 25 μL, (to give a total volume of 50 μL). Absorbance measurements were made at 405 nm on a Spectramax Plus 384 absorbance plate reader (Molecular Devices). Absorbance was read, background glucose-6-phosphate levels were subtracted, after which activation was calculated as a percentage of control activity. Control activity was determined using GK in the presence of vehicle (DMSO), with background glucose-6-phosphate subtracted. Background glucose-6-phosphate was determined by pre-quenching GK with EDTA prior to reaction initiation with ATP.\n(§3) Expression and Purification of Human GK\n(§4) Full-length human hepatic GK (untagged) was expressed in BL21 STAR (DE3)pLysS cells (Invitrogen) at 25° C. as described by Mookhtiar et al. (1). The protein was purified essentially as described by Lange (2) with a slight modification. Briefly, cell pellets were lysed via three rounds of freezing and thawing, centrifuged at 15000 g for clarification, and precipitated with 40-65% (NH4)2SO4. The resulting pellet was resuspended in buffer, dialyzed, and applied directly to a Q-Sepharose (Sigma) column followed by elution with a linear 100-600 mM KCl gradient. GK containing fractions were pooled, dialyzed overnight vs. 25 mM Hepes pH 7.2/1 mM MgCl2/1 mM EDTA/0.1 M KCl/1 mM DTT, then dialyzed again with same buffer with 10% glycerol added.", "units": {"Emax": "%"}, "values": [{"smiles": "COC[C@H](C)Oc1cc(O[C@@H](C)Cc2ccccc2)cc(C(=O)Nc2ncc(Oc3cccc(C(=O)O)c3)s2)c1", "note": "[Example 32]", "Emax": 118}, {"smiles": "CC(C)Oc1cc(Oc2ccc(C(=O)N3CCC3)nc2)cc(C(=O)Nc2ncc(Oc3cccc(C(=O)O)c3)s2)c1", "note": "[Example 46]", "Emax": 124}]}, {"target": "T1, human glucokinase (GK)", "assay": "Glucokinase tandem enzymatic assay", "type": "biochemical", "settings": "12 mM glucose; full-length human GK 15 nM", "procedure": "as §1, §2, §3, §4", "units": {"EC50": "nM"}, "values": [{"smiles": "COC[C@H](C)Oc1cc(Oc2ccc(S(C)(=O)=O)cc2)cc(C(=O)Nc2ncc(Oc3cccc(C(N)=O)c3)s2)c1", "note": "[Example 3]", "EC50": 13}, {"smiles": "COC[C@H](C)Oc1cc(Oc2ccc(S(C)(=O)=O)cc2)cc(C(=O)Nc2ncc(Oc3cccc(C(=O)O)c3)s2)c1", "note": "[Example 4]", "EC50": 47}, {"smiles": "CC(C)Oc1cc(OC(C)C)cc(C(=O)Nc2ncc(Oc3cccc(C(=O)O)c3)s2)c1", "note": "[Example 11]", "EC50": 171}, {"smiles": "CC(C)Oc1cc(OC(C)C)cc(C(=O)Nc2ncc(Oc3ccc(F)nc3)s2)c1", "note": "[Example 17]", "EC50": 179}, {"smiles": "COC[C@H](C)Oc1cc(Oc2ccc(S(C)(=O)=O)cc2)cc(C(=O)Nc2ncc(Oc3cccc(C(=O)N4CCC4)c3)s2)c1", "note": "[Example 33]", "EC50": 6}, {"smiles": "COC[C@H](C)Oc1cc(Oc2ccc(S(C)(=O)=O)cc2)cc(C(=O)Nc2ncc(Oc3cccc(C(=O)N4CC(O)C4)c3)s2)c1", "note": "[Example 34]", "EC50": 16}, {"smiles": "CS(=O)(=O)c1ccc(Oc2cc(Oc3ccnc(Cl)c3)cc(C(=O)Nc3ncc(Oc4cccc(C(=O)O)c4)s3)c2)cc1", "note": "[Example 42]", "EC50": 170}, {"smiles": "CC(C)Oc1cc(Oc2ccc(S(C)(=O)=O)nc2)cc(C(=O)Nc2ncc(Oc3cccc(C(=O)O)c3)s2)c1", "note": "[Example 45]", "EC50": 34}]}, {"target": "T1, human glucokinase (GK)", "assay": "Glucokinase tandem enzymatic assay", "type": "biochemical", "settings": "read-out: Maximal activation (%) Human Glucokinase @ 12 mM Glucose", "procedure": "as §1, §2, §3, §4", "units": {"Emax": "%"}, "values": [{"smiles": "CNC(=O)Oc1cccc(Oc2cnc(NC(=O)c3cc(Oc4ccc(S(C)(=O)=O)cc4)cc(O[C@@H](C)COC)c3)s2)c1", "note": "[Example 38]", "Emax": 144}]}, {"test_system": "male DIO (diet-induced obese) C57BL/6J mice", "assay": "Oral glucose tolerance test (OGTT) in DIO mice", "type": "in vivo", "settings": "30 mg/kg oral, 60 min before 2 g/kg oral glucose; ΔAUC 0-120 min; DIO C57BL/6J mice", "procedure": "In Vivo Studies: Oral Glucose Tolerance Test (OGTT)\nOral glucose tolerance tests were carried out on male DIO (diet-induced obese) C57BL/6J mice fed a high fat diet (60% kcal from fat) for 26 weeks prior to experimentation. Mice were fasted overnight before use for experiments. A test compound or vehicle (10% dimethyl acetamide+10% ethanol+10% Cremophore+70% water) was given orally 60 min before oral administration of a glucose solution at a dose of 2 g/kg body weight (oral glucose tolerance test; OGTT). Blood glucose levels were measured from tail-bled samples taken at different time points before and after administration of glucose (time course of 2 hours). A time curve of the blood glucose was generated and the change from baseline area-under-the curve (ΔAUC) from 0-120 min was calculated (the time glucose administration being time zero).", "units": {"Reduction in Glucose AUC at 30 mg/kg dose": "%"}, "values": [{"smiles": "COC[C@H](C)Oc1cc(Oc2ccc(S(C)(=O)=O)cc2)cc(C(=O)Nc2ncc(Oc3cccc(C(=O)O)c3)s2)c1", "note": "[Example 4]", "Reduction in Glucose AUC at 30 mg/kg dose": 37}]}]}
